Residues, ends and D or L forms follow the SMILES beside them.
How the values were obtained:
[1] = molecular target: T1, NCP (nucleosome core particle) (Homo sapiens, UniProt P04908+P06899+P62805+P68431); assay: biochemical; type: binding
T1 construct: made in house; host or cells: E. coli BL21(DE3)-RIL

[2] = molecular target: T1, NCP (nucleosome core particle); assay: ITC measurement of full-length IE1, IE1-CTD and IE1ΔCTD binding to NCP at 150 mM NaCl
30-nm chromatin fiber = assay: AUC sedimentation velocity of 30-nm chromatin fiber (with H1); type: biochemical, human; conditions: 12 x 177 bp 601 array with H1, […], peptide/protein to NCP 5:1 molar ratio, 10 mM HEPES pH 8.0, 0.1 mM EDTA, listed as LANA-CTD
Method: (§1) Recombinant human core histones were prepared as described above. Linker histone H1.4 and DNA templates of 12 tandem 177 bp repeats of the 601 sequence were cloned and purified, and reconstituted into chromatin as previously described ([Chen et al., 2013]; [Dyer et al., 2003]; [Li et al., 2010]; [Song et al., 2014]).
(§2) The reconstituted chromatin samples were subject to AUC analysis in a buffer containing 10 mM HEPES, pH 8.0 and 0.1 mM EDTA.

nucleosomal arrays = conditions: folding of nucleosomal arrays induced by magnesium ions; ref Chodaparambil et al., 2007; cited from earlier work
Source text: For the purpose of dissecting the functions of individual NCP binding partners, one would ideally like to be able to isolate histone mutants that affect the binding of one protein but not others. The most promising such sites appear to lie in zone II and III, as they are less frequently occupied among known NCP binding proteins (Figure 2). […] Nevertheless, the identification of the E56R variant of histone H2A as an IE1-noninteracting mutant has already se ...

[3] = molecular target: T2, human NCP carrying the E56R mutation of histone H2A (Homo sapiens, UniProt P04908+P06899+P62805+P68431, E57R); assay: ITC measurement of peptide binding to NCP reconstituted with H2A E56R mutant; conditions: 20°C, 10 mM Tris-HCl pH 7.5, 50 mM NaCl, Figure 3
T2 construct: made in house; host or cells: E. coli BL21(DE3)-RIL

10-nm nucleosomal array = assay: AUC sedimentation velocity of 10-nm nucleosomal array (without H1); type: biochemical, human; conditions: 12 x 177 bp 601 array without H1, […], peptide to NCP 5:1 molar ratio, 10 mM HEPES pH 8.0, 0.1 mM EDTA, array alone Save 36 ± 1 S, listed as LANA-CTD
Method: as §1, §2

## CSCC[C@H](NC(=O)[C@@H]1CCCN1C(=O)[C@H](C)NC(=O)[C@@H](NC(=O)[C@H](CO)NC(=O)[C@H](CCCCN)NC(=O)CNC(=O)CN)[C@@H](C)O)C(=O)N[C@H](C(=O)N[C@H](C(=O)N[C@@H](CCCNC(=N)N)C(=O)N[C@@H](CO)C(=O)N[C@@H](CCCCN)C(=O)N[C@@H](C)C(=O)N[C@@H](CC(=O)O)C(=O)N[C@@H](CCC(N)=O)C(=O)O)[C@@H](C)O)C(C)C [H481A] (H-GGKSTAPMVTRSKADQ-OH)
[1]
  Kd: 43.4 ± 5.36 µM

## CSCC[C@H](NC(=O)[C@@H]1CCCN1C(=O)[C@H](Cc1c[nH]cn1)NC(=O)[C@@H](NC(=O)[C@H](CO)NC(=O)[C@H](CCCCN)NC(=O)CNC(=O)CN)[C@@H](C)O)C(=O)N[C@H](C(=O)N[C@H](C(=O)N[C@@H](CCCNC(=N)N)C(=O)N[C@@H](CO)C(=O)N[C@@H](CCCCN)C(=O)N[C@@H](C)C(=O)N[C@@H](CC(=O)O)C(=O)N[C@@H](CCC(N)=O)C(=O)O)[C@@H](C)O)C(C)C [IE1-CTD]
[2]
  Kd: 2.25 ± 0.1 µM
[1]
  Kd: 0.42 ± 0.04 µM

## CSCC[C@H](NC(=O)CNC(=O)[C@@H]1CCCN1)C(=O)N[C@@H](CCCNC(=N)N)C(=O)N[C@@H](CC(C)C)C(=O)N[C@@H](CCCNC(=N)N)C(=O)N[C@@H](CO)C(=O)NCC(=O)N[C@@H](CCCNC(=N)N)C(=O)N[C@@H](CO)C(=O)N[C@H](C(=O)NCC(=O)N[C@@H](C)C(=O)N1CCC[C@H]1C(=O)O)[C@@H](C)O [LANA] (H-PGMRLRSGRSTGAP-OH; N-terminus and C-terminus assumed)
30-nm chromatin fiber
  effect on folding of 30-nm chromatin fiber (in words): does not affect the folding of the 30-nm chromatin fiber
Nucleosomal arrays
  compaction of nucleosomal arrays (in words): promotes the compaction of nucleosomal arrays
[3]
  N (ITC), H2A E56R NCP: 2.03
10-nm nucleosomal array
  effect on 10-nm nucleosomal array (in words): slightly affected
[1]; ITC, 20°C, 10 mM Tris-HCl pH 7.5, 50 mM NaCl, human NCP, Figure 3
  N (ITC): 1.97

## CSCC[C@H](NC(=O)[C@@H]1CCCN1C(=O)[C@H](Cc1c[nH]cn1)NC(=O)[C@@H](NC(=O)[C@H](CO)NC(=O)[C@H](CCCCN)NC(=O)CNC(=O)CN)[C@@H](C)O)C(=O)N[C@H](C(=O)N[C@H](C(=O)N[C@@H](CCCNC(=N)N)C(=O)N[C@@H](CO)C(=O)N[C@@H](CCCCN)C(=O)N[C@@H](C)C(=O)N[C@@H](CC(=O)O)C(=O)N[C@@H](CCC(N)=O)C(=O)O)C(C)C)C(C)C [T485V] (H-GGKSTHPMVVRSKADQ-OH)
[1]
  Kd: 11.3 ± 0.73 µM

## CSCC[C@H](NC(=O)[C@@H]1CCCN1C(=O)[C@@H](N)Cc1c[nH]cn1)C(=O)N[C@H](C(=O)N[C@H](C(=O)N[C@@H](CCCNC(=N)N)C(=O)N[C@@H](CO)C(=O)N[C@@H](CCCCN)C(=O)N[C@@H](C)C(=O)N[C@@H](CC(=O)O)C(=O)N[C@@H](CCC(N)=O)C(=O)O)[C@@H](C)O)C(C)C [Δ476–480] (H-HPMVTRSKADQ-OH)
[1]
  Kd: 12.1 ± 0.45 µM

— paper PMC4764553, “Human cytomegalovirus IE1 protein alters the higher-order chromatin structure by targeting the acidic patch of the nucleosome” (eLife, 2016)
